Consider 22 compounds from patent publication US10227357B2, “Compounds and methods for kinase modulation, and indications therefor” (Plexxikon Inc., priority 2012, dated 2019).

One assay concerns the target T1, c-kit mutant D816V (Homo sapiens, UniProt P10721, D816V/DEL694-753).
T1 construct: residues 551-934, kinase insertion domain residues 694-753 deleted; 6x-histidine (N); made in house; host or cells: E. coli Arctic Express (DE3) RIL (Stratagene)
Description: c-Kit mutant D816V biochemical assay, AlphaScreen. The settings on record: c-kit D816V biochemical inhibitory activity; read-out: Biochemical activity (IC50 μM) Kit D816V. The essentials: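 Purified His-tagged c-Kit D816V (E. coli-expressed) assayed in 25 mM HEPES pH 7.2 with Mg/Mn, 5% DMSO and 10 μM ATP, 30 min at room temperature, 8-point 1:3 dilutions. Phosphorylation detected by AlphaScreen with streptavidin donor and PY20 acceptor beads; IC50 from signal versus concentration.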
A general note: Bead proximity is the source of the signal in Alpha formats.

The next assay concerns the target T2, c-kit kinase (Homo sapiens, UniProt P10721).
T2 construct: The c-kit (or kinase domain thereof) is an active kinase in AlphaScreen; poly-Histidine tag (in-house protein only) (cleaved yes); host or cells: E. coli BL21(DE3)RIL, co-expressed with PTP1B
Description: c-Kit biochemical assay, AlphaScreen, 10 μM ATP. As to conditions: c-kit biochemical inhibitory activity; read-out: Biochemical activity (IC50 μM) Kit. As to the method:
IC50 values are determined with respect to inhibition of c-Kit kinase activity, where inhibition of phosphorylation of a peptide substrate is measured as a function of compound concentration. Compounds to be tested were dissolved in DMSO to a concentration of 20 mM. These were diluted 30 μl into 120 μl of DMSO (4 mM) and 1 μl was added to an assay plate. These were then serially diluted 1:3 (50 μl to 100 μl DMSO) for a total of 8 points. Plates were prepared such that each kinase reaction is 20 μl in 1× kinase buffer (50 mM HEPES, pH 7.2, 5 mM MgCl2, 5 mM MnCl2, 0.01% NP-40, 0.2% BSA), 5% DMSO and 10 μM ATP. […] C-kit kinase was at 0.1 ng per sample. After incubation of the kinase reaction for 1 hour at room temperature, 5 μl of donor beads (Streptavidin coated beads (Perkin Elmer Life Science) final concentration 1 μg/ml) in stop buffer (50 mM EDTA in 1× kinase buffer) was added, the sample was mixed and incubated for 20 minutes at room temperature before adding 5 μl of acceptor beads (PY20 coated beads (Perkin Elmer Life Science) final concentration 1 μg/ml) in stop buffer. The samples were incubated for 60 minutes at room temperature and the signal per well was read on AlphaQuest reader. […] The signal vs. compound concentration was used to determine the IC50.
Complementary DNA cloned from various human tissues were purchased from Invitrogen, and these were used as substrates in the PCR reactions. Specific custom synthetic oligonucleotide primers were designed to initiate the PCR product, and also to provide the appropriate restriction enzyme cleavage sites for ligation with the plasmids. The entire sequence encoding the enzyme was made through a gene synthesis procedure, using custom synthetic oligonucleotides covering the entire coding sequence (Invitrogen, see below).
The plasmid used for ligation with the kinase-encoding inserts was derivative of pET (Novagen) for expression using E. coli. The Kit kinase was engineered to include a Histidine tag for purification using metal affinity chromatography. The kinase-encoding plasmid was engineered as bicistronic mRNA to co-express a second protein that modifies the kinase protein during its expression in the host cell. Protein tyrosine phosphatase 1B (PTP), was co-expressed for dephosphorylation of the phospho-Tyrosines.
For protein expression, the plasmid containing the Kit gene was transformed into E. coli strains BL21(DE3)RIL and transformants selected for growth on LB agar plates containing appropriate antibiotics. Single colonies were grown overnight at 37° C. in 200 ml TB (Terrific broth) media. 16×1 L of fresh TB media in 2.8 L flasks were inoculated with 10 ml of overnight culture and grown with constant shaking at 37° C. Once cultures reached an absorbance of 1.0 at 600 nm, IPTG was added and cultures were allowed to grow for a further 12 to 18 hrs at temperatures ranging from 12-30° C. Cells were harvested by centrifugation and pellets frozen at […] until ready for lysis.
For protein Purification; frozen E. coli cell pellets were resuspended in lysis buffer and lysed using standard mechanical methods. Protein was purified via poly-Histidine tags using immobilized metal affinity purification IMAC. The Kit kinase was purified using a 3 step purification process utilizing; IMAC, size exclusion chromatography and ion exchange chromatography. The poly-Histidine tag was removed using Thrombin (Calbiochem).

T2 sequence (P10721 26-976): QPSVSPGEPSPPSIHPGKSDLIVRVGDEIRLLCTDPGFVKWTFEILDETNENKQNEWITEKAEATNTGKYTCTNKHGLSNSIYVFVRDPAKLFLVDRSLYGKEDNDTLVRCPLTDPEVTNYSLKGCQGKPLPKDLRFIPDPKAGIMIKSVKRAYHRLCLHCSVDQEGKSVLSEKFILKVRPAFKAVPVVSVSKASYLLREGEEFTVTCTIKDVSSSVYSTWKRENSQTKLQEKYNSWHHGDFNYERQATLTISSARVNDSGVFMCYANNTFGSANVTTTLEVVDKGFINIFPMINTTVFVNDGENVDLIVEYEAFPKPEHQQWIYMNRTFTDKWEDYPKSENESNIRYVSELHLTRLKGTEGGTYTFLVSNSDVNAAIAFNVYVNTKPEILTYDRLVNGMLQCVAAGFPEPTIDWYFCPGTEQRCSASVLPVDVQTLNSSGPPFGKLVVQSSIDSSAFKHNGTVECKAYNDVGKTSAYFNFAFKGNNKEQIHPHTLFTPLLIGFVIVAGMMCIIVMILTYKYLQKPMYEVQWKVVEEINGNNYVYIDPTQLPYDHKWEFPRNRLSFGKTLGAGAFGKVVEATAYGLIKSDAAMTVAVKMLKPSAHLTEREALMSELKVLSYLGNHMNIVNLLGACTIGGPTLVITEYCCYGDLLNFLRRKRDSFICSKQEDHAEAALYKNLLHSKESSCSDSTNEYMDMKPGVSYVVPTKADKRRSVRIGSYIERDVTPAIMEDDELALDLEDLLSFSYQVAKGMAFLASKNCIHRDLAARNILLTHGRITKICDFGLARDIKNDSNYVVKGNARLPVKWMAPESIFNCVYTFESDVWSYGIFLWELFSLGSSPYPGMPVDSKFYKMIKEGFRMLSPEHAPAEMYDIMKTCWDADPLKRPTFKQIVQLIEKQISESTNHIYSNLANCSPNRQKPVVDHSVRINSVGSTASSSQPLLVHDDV
T1 sequence (P10721 with tags, fused parts or gaps DEL694-753/D816V): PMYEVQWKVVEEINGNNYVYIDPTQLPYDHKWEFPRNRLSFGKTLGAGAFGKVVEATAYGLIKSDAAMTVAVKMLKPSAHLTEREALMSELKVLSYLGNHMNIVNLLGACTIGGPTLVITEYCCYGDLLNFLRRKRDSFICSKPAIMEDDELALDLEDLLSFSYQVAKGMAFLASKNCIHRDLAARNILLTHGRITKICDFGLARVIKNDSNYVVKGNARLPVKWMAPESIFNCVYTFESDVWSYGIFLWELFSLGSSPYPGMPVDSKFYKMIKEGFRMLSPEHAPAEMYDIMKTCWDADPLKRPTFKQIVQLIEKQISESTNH

For orientation: IC50 means the concentration at which inhibition is half-maximal. For `Cc1ccc(-c2cc3c(N4CCN(C(=O)N[C@@H](C)c5cccc(Cl)c5)C(C)(C)C4)ncnc3[nH]2)cn1` [P-0001, N-[(1S)-1-(3-chlorophenyl)ethyl]-2,2-dimethyl-4-[6-(6-methyl-3-pyridyl)-7H-pyrrolo[2,3-d]pyrimidin-4-yl]piperazine-1-carboxamide], the figures for the IC50 at c-kit mutant D816V and on c-kit kinase were 0.0001 to 1 µM and 1 to 10 µM, respectively. For `Cc1ccc(-c2cc3c(N4CCN(C(=O)N[C@@H](C)c5cccc(OC(F)F)c5)C(C)(C)C4)ncnc3[nH]2)cn1` [P-0002, N-[(1S)-1-[3-(difluoromethoxy)phenyl]ethyl]-2,2-dimethyl-4-[6-(6-methyl-3-pyridyl)-7H-pyrrolo[2,3-d]pyrimidin-4-yl]piperazine-1-carboxamide] the same measures were 0.0001 to 1 µM and 1 to 10 µM. Regarding `COc1cccc([C@H](C)NC(=O)N2CCN(c3ncnc4[nH]c(C)cc34)CC2)c1` [P-0003, N-[(1S)-1-(3-methoxyphenyl)ethyl]-4-(6-methyl-7H-pyrrolo[2,3-d]pyrimidin-4-yl)piperazine-1-carboxamide], the IC50 at c-kit mutant D816V fell in the range of 0.0001 to 1 µM; on c-kit kinase it was 10 to 200 µM.

Regarding `COc1cc([C@H](C)NC(=O)N2CCN(c3ncnc4[nH]c(-c5ccc(F)cc5)cc34)C[C@H]2C)ccc1F` [P-0004, (2R)-N-[(1S)-1-(4-fluoro-3-methoxy-phenyl)ethyl]-4-[6-(4-fluorophenyl)-7H-pyrrolo[2,3-d]pyrimidin-4-yl]-2-methyl-piperazine-1-carboxamide], the IC50 on c-kit mutant D816V lay in the range of 0.0001 to 1 µM; at c-kit kinase, 10 to 200 µM. For `C[C@H](NC(=O)N1CCN(c2ncnc3[nH]c(-c4ccc(F)cc4)cc23)CC1(C)C)c1cccc(F)c1` [P-0005, N-[(1S)-1-(3-fluorophenyl)ethyl]-4-[6-(4-fluorophenyl)-7H-pyrrolo[2,3-d]pyrimidin-4-yl]-2,2-dimethyl-piperazine-1-carboxamide] the same measures were 0.0001 to 1 µM and 1 to 10 µM. For `C[C@H](NC(=O)N1CCN(c2ncnc3[nH]c(-c4ccc(F)cc4)cc23)CC1(C)C)c1cccc(OC(F)F)c1` [P-0006, N-[(1S)-1-[3-(difluoromethoxy)phenyl]ethyl]-4-[6-(4-fluorophenyl)-7H-pyrrolo[2,3-d]pyrimidin-4-yl]-2,2-dimethyl-piperazine-1-carboxamide], in that order: 0.0001 to 1 µM and 1 to 10 µM. For `Cc1ccc(-c2cc3c(N4CCN(C(=O)N[C@@H](C)c5cccc(F)c5)C(C)(C)C4)ncnc3[nH]2)cn1` [P-0007, N-[(1S)-1-(3-fluorophenyl)ethyl]-2,2-dimethyl-4-[6-(6-methyl-3-pyridyl)-7H-pyrrolo[2,3-d]pyrimidin-4-yl]piperazine-1-carboxamide] the same measures were 0.0001 to 1 µM and 10 to 200 µM. Consider `C[C@H](NC(=O)N1CCN(c2ncnc3[nH]c(-c4ccc(F)cc4)cc23)CC1(C)C)c1cccc(Cl)c1` [P-0008, N-[(1S)-1-(3-chlorophenyl)ethyl]-4-[6-(4-fluorophenyl)-7H-pyrrolo[2,3-d]pyrimidin-4-yl]-2,2-dimethyl-piperazine-1-carboxamide], for which the IC50 was 0.0001 to 1 µM on c-kit mutant D816V and 1 to 10 µM on c-kit kinase. For the compound `COc1cccc([C@H](C)NC(=O)N2CCN(c3ncnc4[nH]c(-c5ccnc(OC)c5)cc34)CC2(C)C)c1` [P-0009, N-[(1S)-1-(3-methoxyphenyl)ethyl]-4-[6-(2-methoxy-4-pyridyl)-7H-pyrrolo[2,3-d]pyrimidin-4-yl]-2,2-dimethyl-piperazine-1-carboxamide], the IC50 was in the range of 0.0001 to 1 µM at c-kit mutant D816V and 1 to 10 µM on c-kit kinase. For `O=C(NC1CCCCC1)NC1CCN(c2ncnc3[nH]ccc23)CC1` [P-0537, 1-cyclohexyl-3-[1-(7H-pyrrolo[2,3-d]pyrimidin-4-yl)-4-piperidyl]urea], on c-kit kinase, the IC50 is 10 to 200 µM. Same read-out and setting: as for `O=C(Nc1ccccc1)NC1CCN(c2ncnc3[nH]ccc23)CC1` [P-0538, 1-phenyl-3-[1-(7H-pyrrolo[2,3-d]pyrimidin-4-yl)-4-piperidyl]urea], the figure is 10 to 200 µM. Still for that read-out and setting: the result for `Cc1ccc(-c2cc3c(C4=CCC(NS(=O)(=O)c5ccc(OC(F)(F)F)cc5)CC4)ncnc3[nH]2)cn1` (stereo not shown) [P-0544, N-[4-[6-(6-methyl-3-pyridyl)-7H-pyrrolo[2,3-d]pyrimidin-4-yl]cyclohex-3-en-1-yl]-4-(trifluoromethoxy)benzenesulfonamide] reads 10 to 200 µM; that for `Cn1cc(-c2cc3c(C4=CCC(NS(=O)(=O)c5ccc(OC(F)(F)F)cc5)CC4)ncnc3[nH]2)cn1` (stereo not shown) [P-0545, N-[4-[6-(1-methylpyrazol-4-yl)-7H-pyrrolo[2,3-d]pyrimidin-4-yl]cyclohex-3-en-1-yl]-4-(trifluoromethoxy)benzenesulfonamide], 1 to 10 µM; that for `COc1cccc([C@H](C)NC(=O)N2CCN(c3ncnc4cc(N5CCOCC5)sc34)CC2)c1` [P-0548, N-[(1S)-1-(3-methoxyphenyl)ethyl]-4-(6-morpholinothieno[3,2-d]pyrimidin-4-yl)piperazine-1-carboxamide], 1 to 10 µM. Still for that read-out and setting: the result for `C[C@H](NC(=O)N1CC2CCC1CN2c1ncnc2cc(-c3ccc(F)cc3)sc12)c1cccc(Cl)c1` (stereo partly drawn) [P-0565, N-[(1S)-1-(3-chlorophenyl)ethyl]-5-[6-(4-fluorophenyl)thieno[3,2-d]pyrimidin-4-yl]-2,5-diazabicyclo[2.2.2]octane-2-carboxamide] reads 1 to 10 µM. On to `Cc1ccc(S(=O)(=O)Nc2ccc(-c3cc4ncnc(N5CCN(C(=O)Nc6ccccc6)CC5)c4s3)cc2)cc1` [P-0625, N-phenyl-4-[6-[4-(p-tolylsulfonylamino)phenyl]thieno[3,2-d]pyrimidin-4-yl]piperazine-1-carboxamide], for which the half-inhibitory concentration (IC50) on c-kit kinase was in the range of 10 to 200 µM. The same measure, in the same setting: the result for `Cn1cc(-c2cc3ncnc(N4CCN(C(=O)Nc5ccccc5)CC4)c3s2)cn1` [P-0627, 4-[6-(1-methylpyrazol-4-yl)thieno[3,2-d]pyrimidin-4-yl]-N-phenyl-piperazine-1-carboxamide] reads 1 to 10 µM. For `Cc1ccc(S(=O)(=O)Nc2ccc(-c3ncnc4cc(-c5cnn(C)c5)sc34)cc2)cc1` [P-0628, 4-methyl-N-[4-[6-(1-methylpyrazol-4-yl)thieno[3,2-d]pyrimidin-4-yl]phenyl]benzenesulfonamide], the 50% inhibitory concentration (IC50) at c-kit kinase was 0.0001 to 1 µM. On the same count and under the same terms, the result for `CC(C)(C)c1cc2ncnc(N3CCN(C(=O)NCc4ccc(F)cc4)CC3)c2s1` [P-0637, 4-(6-tert-butylthieno[3,2-d]pyrimidin-4-yl)-N-[(4-fluorophenyl)methyl]piperazine-1-carboxamide] reads 10 to 200 µM.

For the compound `CC(C)(C)c1cc2ncnc(N3CCN(C(=O)Nc4ccc(F)cc4)CC3)c2s1` [P-0639, 4-(6-tert-butylthieno[3,2-d]pyrimidin-4-yl)-N-(4-fluorophenyl)piperazine-1-carboxamide], the IC50 at c-kit kinase is 10 to 200 µM. Still for that read-out and setting: as for `O=S(=O)(NC1CCN(c2ncnc3[nH]c(-c4cc(Cl)cs4)cc23)CC1)c1ccc(OC(F)(F)F)cc1` [P-0670, N-[1-[6-(4-chloro-2-thienyl)-7H-pyrrolo[2,3-d]pyrimidin-4-yl]-4-piperidyl]-4-(trifluoromethoxy)benzenesulfonamide], the figure is 10 to 200 µM; as for `C[C@H](NC(=O)N1CCN(c2ncnc3ccsc23)CC1(C)C)c1cccc(Cl)c1` [P-0682, N-[(1S)-1-(3-chlorophenyl)ethyl]-2,2-dimethyl-4-thieno[3,2-d]pyrimidin-4-yl-piperazine-1-carboxamide], 10 to 200 µM.
